Test results taken from PubChem BioAssay (NCI).
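Results reflect a 48-hour exposure of cells in 96-well plates to compound at five concentrations. TGI: concentration producing complete growth inhibition.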 Where a SMILES comes first, the peptide text is derived from it. The star is where a group is joined. Boc = CC(C)(C)OC(=O)*

Key:
Experiment in all cases: inhibition of tumour cell growth, NCI panel, 48 h
[1] = tested on: COLO 205 colon
[2] = tested on: NCI/ADR-RES ovarian
[3] = tested on: MOLT-4 leukemia
[4] = tested on: A549 NSCLC
[5] = tested on: HT29 colon
[6] = tested on: RPMI-8226 leukemia
[7] = tested on: MDA-N
[8] = tested on: OVCAR-5 ovarian
[9] = tested on: NCI-H226 lung
[10] = tested on: CAKI-1 renal
[11] = tested on: DU-145 prostate
[12] = tested on: NCI-H23 lung
[13] = tested on: UACC-257 melanoma
[14] = tested on: NCI-H522 lung
[15] = tested on: HL-60(TB) leukemia
[16] = tested on: MCF7 breast
[17] = tested on: CCRF-CEM leukemia
[18] = tested on: U251 CNS
[19] = tested on: ACHN renal
[20] = tested on: A498 renal

SMILES | TGI [1] [µM] | TGI [2] [µM] | TGI [3] [µM] | TGI [4] [µM] | TGI [5] [µM] | TGI [6] [µM] | TGI [7] [µM] | TGI [8] [µM] | TGI [9] [µM] | TGI [10] [µM] | TGI [11] [µM] | TGI [12] [µM] | TGI [13] [µM] | TGI [14] [µM] | TGI [15] [µM] | TGI [16] [µM] | TGI [17] [µM] | TGI [18] [µM] | TGI [19] [µM] | TGI [20] [µM]
O=C(O)CCNc1ncc2c(n1)-c1ccccc1OC2 | > 100 | > 100 | > 100 | > 100 | > 100 | > 100 | > 100 | > 100 | > 100 | > 100 | > 100 | > 100 | > 100 | > 100 | > 100 | > 100 | > 100 | > 100 | > 100 | –
CCN(CC)C(=S)/N=C(\SC(=S)N(CC)CC)c1ccccc1 | 72.5 | > 100 | > 74.8 | > 100 | > 100 | > 96.1 | > 73.2 | > 100 | > 100 | > 100 | > 87.9 | > 100 | > 100 | 3.39 | – | > 100 | > 100 | > 100 | > 100 | > 100
Cc1n[nH]c(=O)n1Nc1ccccc1 | > 100 | > 100 | > 100 | > 100 | > 100 | > 100 | > 100 | > 100 | > 100 | > 100 | > 100 | > 100 | > 100 | > 100 | > 100 | > 100 | > 100 | > 100 | > 100 | –
COc1ccc(N=C(CS(=O)c2ccc(C)cc2)C(F)(F)F)cc1 (stereo not given) | > 100 | > 100 | > 100 | > 100 | > 100 | – | > 100 | > 100 | > 100 | > 100 | > 100 | > 100 | > 100 | > 100 | 50.9 | > 100 | > 100 | > 100 | > 100 | –
Cc1cc(O)c2c(c1)C(C1OC(CO)C(O)C(O)C1O)c1cc(O)cc(O)c1C2=O (stereo not given) | > 100 | > 100 | > 100 | > 100 | > 100 | > 100 | > 100 | > 100 | > 100 | – | > 100 | > 100 | > 100 | – | > 100 | > 100 | > 100 | > 100 | > 100 | > 100
COc1ccc(-c2[nH]c(-c3ccc(OC)cc3)c(-c3ccccn3)c2-c2ccccn2)cc1 | 61.1 | > 100 | > 100 | > 100 | 49.3 | 69.5 | > 100 | > 100 | > 100 | > 100 | > 100 | > 100 | > 100 | – | > 100 | > 100 | > 100 | > 100 | > 100 | > 100
Cc1ccc(N=NN(C)C(C)C(O)Cc2ccccc2)cc1 (stereo not given) | > 100 | > 100 | > 100 | > 100 | > 100 | > 100 | > 100 | > 100 | > 100 | > 100 | > 100 | > 100 | > 100 | – | > 100 | > 100 | > 100 | > 100 | > 100 | –
COc1ccc(C[n+]2cccc(O)c2)cc1 | – | > 100 | > 100 | > 100 | > 100 | – | > 100 | > 100 | > 100 | – | > 100 | > 100 | – | – | > 100 | > 100 | > 100 | > 100 | > 100 | > 100
CCOC(=O)NC(Nc1ccc(S(=O)(=O)Nc2ccc(OC)nn2)cc1)(C(F)(F)F)C(F)(F)F | 58.7 | 59.9 | 49.5 | > 100 | > 100 | 54.8 | > 100 | > 100 | 75.9 | > 100 | > 100 | 96.4 | 98.6 | – | 58.2 | > 100 | 70.4 | 41 | 90.7 | 54.6
N#CC(c1ccccc1)N(CCc1ccccc1)C(=O)c1ccc(C(=O)N(CCc2ccccc2)C(C#N)c2ccccc2)cc1 (stereo not given) | 55.6 | 47.3 | – | > 100 | 38.6 | – | 65.1 | 78.7 | 33.8 | > 100 | > 100 | 77.6 | 35.3 | – | > 100 | > 100 | 71.5 | 64.6 | 73.5 | 75.3
CC(NC(=O)C1CCCN1C(=O)CNC(=O)OC(C)(C)C)C(=O)O (stereo not drawn) (Boc-Gly-Pro-Ala-OH; configuration not given here) | > 100 | > 100 | > 100 | > 100 | > 100 | > 100 | > 100 | > 100 | > 100 | > 100 | > 100 | > 100 | > 100 | > 100 | – | > 100 | – | > 100 | > 100 | –
O=C(NC(=O)c1ccccc1)OC(c1ccccc1)C1CO1 (stereo not given) | > 100 | > 100 | > 100 | > 100 | > 100 | > 100 | > 100 | > 100 | > 100 | > 100 | > 100 | > 100 | > 100 | > 100 | > 100 | > 100 | > 100 | > 100 | > 100 | –
COC(=O)CNC(=O)CNC(=O)CSc1nnc(COc2ccc(Cl)cc2)n1-c1ccccc1 | > 100 | > 100 | > 100 | > 100 | > 100 | 78.1 | 55.4 | > 100 | > 100 | 31.7 | > 100 | > 100 | 40.5 | 31.8 | – | > 100 | 57.4 | > 100 | > 100 | > 100
Clc1cc2nc(C3CCCCO3)[nH]c2cc1Cl (stereo not given) | > 100 | > 52.1 | > 100 | > 100 | 25.8 | > 73.4 | 22.8 | > 100 | > 100 | > 100 | > 100 | > 59.8 | > 100 | 18.5 | > 53.5 | 36.5 | > 100 | > 96.7 | > 100 | –
O=C(O)C1CC(C2CCCCN2)CN2CCCCC12 (stereo not given) | > 100 | > 100 | > 100 | > 100 | > 100 | > 100 | > 100 | > 100 | > 100 | > 100 | > 100 | > 100 | > 100 | – | – | > 100 | > 100 | > 100 | > 100 | > 100
CCCCCCCCCC(=O)NCCc1c[nH]c2ccc(OC)cc12 | 55.7 | 38.4 | > 100 | 40.1 | > 100 | 67 | 35.5 | 61.2 | 42.1 | 65.6 | 42.1 | 31.6 | 41.8 | 32.1 | – | 33.7 | 37.5 | 31.2 | 30.6 | 29.9
Cc1nn(C(=O)c2ccc(Cl)cc2)c2c1C(c1ccccc1O)SC(N)=N2 (stereo not given) | > 10 | > 10 | > 10 | > 10 | > 10 | > 10 | > 10 | > 10 | > 10 | > 10 | > 10 | > 10 | > 10 | > 10 | > 10 | > 10 | > 10 | > 10 | > 10 | –
Cc1cccc2c(N)c3cccc(C(=O)NCC[N+](C)(C)Cc4ccc(S(C)(=O)=O)cc4)c3nc12 | > 100 | > 100 | – | > 100 | > 100 | > 45.4 | > 100 | > 100 | > 100 | > 100 | > 100 | > 100 | > 100 | – | 38.6 | > 100 | > 62 | > 100 | > 100 | 65
COc1ccc2nc3c(C)cc4ccccc4n3c2c1 | – | > 100 | > 100 | > 100 | > 100 | > 100 | > 100 | > 100 | > 100 | – | > 100 | > 100 | > 100 | – | > 100 | > 100 | > 100 | > 100 | > 100 | 65.4
CC1(c2nc3ccccc3[nH]2)CCC(C#N)C(C)(C)O1 (stereo not given) | > 100 | > 100 | > 100 | > 100 | > 100 | > 100 | > 100 | > 100 | > 100 | > 100 | > 100 | > 100 | > 100 | > 100 | > 100 | > 100 | > 100 | > 100 | > 100 | –
COc1ccc(C(OC(=O)[C@H](O[Si](C)(C)C(C)(C)C)[C@@H](NC(=O)c2ccccc2)c2ccccc2)c2ccc(OC)cc2)cc1 | > 100 | > 100 | > 100 | > 100 | > 100 | 25.1 | > 100 | > 100 | > 100 | > 100 | > 100 | > 100 | > 100 | > 100 | – | > 100 | > 100 | > 100 | > 100 | > 100
O=C1NC(=S)N/C1=C\c1ccc(Cl)cc1 | > 100 | > 100 | > 100 | > 100 | > 100 | > 100 | > 100 | > 100 | > 100 | > 100 | > 100 | > 100 | – | > 100 | – | > 100 | > 100 | > 100 | – | –
CN1C(=O)N/C(=C\c2ccc(S(=O)(=O)N/N=C/c3ccccc3)cc2)C1=O | > 100 | > 100 | 83.7 | > 100 | > 100 | > 100 | > 100 | > 100 | > 100 | > 100 | > 100 | > 100 | > 100 | – | > 100 | 68.5 | > 100 | > 100 | > 100 | > 100
COC(=O)CN=C1NC(=S)N(Cc2ccc(OC)cc2)C12CCCC2 | > 100 | > 100 | > 100 | > 100 | > 100 | > 100 | > 100 | > 100 | > 100 | > 100 | > 100 | > 100 | > 100 | > 100 | – | > 100 | > 100 | > 100 | > 100 | > 100
CCCCC(O)(c1ccccc1)C(O)(c1ccccc1)c1c(F)c(F)c(F)c(F)c1F (stereo not given) | – | 49.1 | 45.6 | > 100 | 32.3 | 45.6 | 39.3 | 41.1 | 86 | – | > 100 | > 100 | 49.1 | – | 61.9 | 53.1 | 88.7 | 32 | 72.6 | 49.4
